Legend:
A2058 = test: Cytotoxicity against human A2058 cells; assay type: functional, cell-based
[1] = Selectivity index, ratio for IC50 for human T75 cells to IC50 for human A2058 cells
[2] = Cytotoxicity against human T75 cells; assay type: cell-based
B16-F10 = test: Cytotoxicity against mouse B16-F10 cells; assay type: functional, cell-based

Row | Compound | IC50 (A2058) [µM] | Ratio IC50 [1] | IC50 [2] [µM] | IC50 (B16-F10) [µM]
1 | CCCOc1c(OC)cc(CCC)cc1Oc1ccc(CCC)cc1OC | 52.2 | >1.9 | > 100 | 79
2 | CCCc1ccc(Oc2cc(CCC)cc(OC)c2OC)c(OC)c1 | > 100 |  | > 100 | > 100
3 | C=CCc1ccc(Oc2cc(CC=C)cc(OC)c2Oc2ccccc2)c(OC)c1 | > 100 |  | > 100 | > 100
4 | C=CCc1ccc(Oc2cc(C(=O)C=C)cc(OC)c2OC)c(OC)c1 | > 100 |  | > 100 | > 100
5 | C=CCc1ccc(Oc2cc(C(=O)C=C)cc(OC)c2O)c(OC)c1 | 85.3 | >1.2 | > 100 | 82.2
6 | C=CCc1ccc(Oc2cc(C(O)C=C)cc(OC)c2O)c(OC)c1 (stereo not given) | > 100 |  | > 100 | > 100
7 | COc1cc(C=O)ccc1Oc1cc(C=O)cc(OC)c1OC=O | 61.4 | >1.6 | > 100 | 80.2
8 | COc1cc(CC(C)O)ccc1Oc1cc(CC(C)O)cc(OC)c1OCC(C)O (stereo not given) | > 100 |  | > 100 | > 100
9 | C=CCc1ccc(Oc2cc(C(O)C=C)cc(OC)c2OC)c(OC)c1 (stereo not given) | > 100 |  | > 100 | 90.3
10 | COc1cc(CC(C)=O)ccc1Oc1cc(CC(C)=O)cc(OC)c1OCC(C)=O | > 100 |  | > 100 | > 100
11 | COc1cc(CCCO)ccc1Oc1cc(CCCO)cc(OC)c1OCCCO | > 100 |  | > 100 | > 100
12 | CCCc1ccc(Oc2cc(CCC)cc(OC)c2Oc2ccccc2)c(OC)c1 | > 100 |  | > 100 | > 100
13 | CCC(O)Oc1c(OC)cc(C(O)CC)cc1Oc1ccc(C(O)CC)cc1OC (stereo not given) | > 100 |  | > 100 | > 100
14 | CCCS(=O)(=O)Nc1ccc(F)c(C(=O)c2c[nH]c3ncc(-c4ccc(Cl)cc4)cc23)c1F [VEMURAFENIB] | 8.7 | >11.5 | > 100 | 

— ChEMBL document CHEMBL4725273, “Structure-activity relationship study of cytotoxic neolignan derivatives using multivariate analysis and computation-aided drug design” (Bioorg Med Chem Lett, 2020)
